According to ChEMBL document CHEMBL4765470 (J Med Chem, 2021):
Starred links: 1 amine or outer side, 2 acyl side, 3 side chain; linkers in the order of their positions; H or OH if unused. Non-standard residues stand in square brackets, D forms with d. Residues, ends and D or L forms follow the SMILES beside them. Bpa = N[C@@H](Cc1ccc(C(=O)c2ccccc2)cc1)C(=O)O; Ala(thiazol-5-yl) = N[C@@H](Cc1cncs1)C(=O)O; γ4hPhe = O=C(CC[C@H](Cc1ccccc1)N[*:1])[*:2]; 1Nal = N[C@@H](Cc1cccc2ccccc12)C(=O)O; 2Nal = N[C@@H](Cc1ccc2ccccc2c1)C(=O)O; 2Thi = N[C@@H](Cc1cccs1)C(=O)O; Cha = N[C@@H](CC1CCCCC1)C(=O)O; Tle = CC(C)(C)[C@H](N)C(=O)O; Pip = O=C(O)[C@@H]1CCCCN1; Nle = CCCC[C@H](N)C(=O)O; Orn = NCCC[C@H](N)C(=O)O; Ac5c = NC1(C(=O)O)CCCC1; Aze = O=C(O)[C@@H]1CCN1; Dab = NCC[C@H](N)C(=O)O; Ac3c = NC1(C(=O)O)CC1; Aib = CC(C)(N)C(=O)O

How the values were obtained:
Apelin receptor [1] = biological target: T1, Apelin receptor (Homo sapiens, UniProt P35414); experiment: Agonist activity at human APJ receptor expressed in HEK293T cells co-expressing PDZ-Rho-Gef-RLucll assessed as induction of Galpha12 effector (PDZ-RhoGEF) to the cell membrane incubated for 5 mins by BRET assay; format: functional, cell-based
T1 sequence (P35414 whole entry): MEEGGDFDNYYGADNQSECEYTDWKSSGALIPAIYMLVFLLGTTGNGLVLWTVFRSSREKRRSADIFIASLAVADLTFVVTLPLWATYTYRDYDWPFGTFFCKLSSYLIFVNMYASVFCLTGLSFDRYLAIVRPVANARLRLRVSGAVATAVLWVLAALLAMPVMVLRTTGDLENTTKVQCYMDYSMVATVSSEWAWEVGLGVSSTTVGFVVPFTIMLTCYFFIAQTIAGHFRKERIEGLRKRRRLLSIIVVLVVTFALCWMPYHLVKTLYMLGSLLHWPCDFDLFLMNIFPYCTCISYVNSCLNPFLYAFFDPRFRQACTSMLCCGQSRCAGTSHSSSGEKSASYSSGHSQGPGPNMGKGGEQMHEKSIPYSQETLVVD

Apelin receptor [2] = biological target: T1, Apelin receptor; experiment: Agonist activity at human APJ receptor expressed in HEK293 cells co-expressing Rlucll-beta-arrestin2 assessed as induction of beta-arrestin2 recruitment to APJ incubated for 30 mins by BRET assay; format: cell-based
Apelin receptor [3] = biological target: T1, Apelin receptor; experiment: Displacement of [125I] [NIe75, Tyr77]Pyr-apelin-13 from YFP-tagged human APJ receptor expressed in HEK293 cell membranes incubated for 1 hr by gamma counting based Cheng-Prusoff equation analysis
Apelin receptor [4] = biological target: T1, Apelin receptor; experiment: Agonist activity at human APJ receptor expressed in HEK293 cells co-expressing Galpha(i1)-RlucII(91) assessed as induction of dissociation of Galpha(i1) from G-beta-gamma subunits incubated for 5 mins by BRET assay; format: cell-based

EC50 (Apelin receptor [1]) | EC50 (Apelin receptor [2]) | Ki (Apelin receptor [3]) | EC50 (Apelin receptor [4]) | Molecule
128 nM | 151 nM | 9.3 nM | 4 nM | CCCC[C@H](N)C(=O)N1CCC[C@H]1C(=O)N[C@@H](CC(C)C)C(=O)N[C@@H](Cc1cnc[nH]1)C(=O)N[C@@H](CO)C(=O)N[C@@H](CCCNC(=N)N)C(=O)N[C@H](C(=O)N1CCC[C@H]1C(=O)N[C@@H](CCc1ccccc1)C(=O)N1CCC[C@H]1C(=O)O)C(C)C
74 nM | 88 nM | 1.1 nM | 1.1 nM | CCCC[C@H](N)C(=O)N1CCC[C@H]1C(=O)N[C@@](C)(CC(C)C)C(=O)N[C@@H](Cc1cnc[nH]1)C(=O)N[C@@H](CO)C(=O)N[C@@H](CCCNC(=N)N)C(=O)N[C@H](C(=O)N1CCC[C@H]1C(=O)N[C@@H](Cc1ccccc1)C(=O)N1CCC[C@H]1C(=O)O)C(C)C
224 nM | 172 nM | 5.1 nM | 6.9 nM | CCCC[C@H](N)C(=O)N1CCC[C@H]1C(=O)N[C@@H](CC(C)C)C(=O)N[C@@H](Cc1cnc[nH]1)C(=O)N[C@@H](CO)C(=O)N[C@@H](CCCNC(=N)N)C(=O)N[C@H](C(=O)N1CCC[C@H]1C(=O)N[C@@H](Cc1ccccc1)C(=O)N1C2CCCCC2C[C@H]1C(=O)O)C(C)C (some centres undefined)
141 nM | 370 nM | 16 nM | 5.8 nM | CCCC[C@H](N)C(=O)N1CCC[C@H]1C(=O)N[C@H](C(=O)N[C@@H](Cc1cnc[nH]1)C(=O)N[C@@H](CO)C(=O)N[C@@H](CCCNC(=N)N)C(=O)N[C@H](C(=O)N1CCC[C@H]1C(=O)N[C@@H](Cc1ccccc1)C(=O)N1CCC[C@H]1C(=O)O)C(C)C)[C@@H](C)CC (H-[Nle]PIHSRVPFP-OH)
314 nM | 533 nM | 18 nM | 14 nM | CCCC[C@H](N)C(=O)N1CCC[C@H]1C(=O)N[C@@H](CC(C)C)C(=O)N[C@@H](Cc1cnc[nH]1)C(=O)N[C@@H](CO)C(=O)N[C@@H](CCCNC(=N)N)C(=O)N[C@@H](Cc1ccccc1)C(=O)N1CCC[C@H]1C(=O)N[C@@H](Cc1ccccc1)C(=O)N1CCC[C@H]1C(=O)O (H-[Nle]PLHSRFPFP-OH)
198 nM | 175 nM | 8.9 nM | 5.8 nM | CCCC[C@H](N)C(=O)N1CCC[C@H]1C(=O)N[C@@H](CC(C)C)C(=O)N[C@@H](Cc1cnc[nH]1)C(=O)N[C@@H](CO)C(=O)N[C@@H](CCCNC(=N)N)C(=O)N[C@H](C(=O)N1CCC[C@H]1C(=O)N[C@H](CCC(=O)O)Cc1ccccc1)C(C)C (H-[Nle]PLHSRVP-γ4hPhe)
 |  | > 10000 nM |  | CCCC[C@H](N)C(=O)N1CCC[C@H]1C(=O)N[C@@H](CC(C)C)C(=O)N[C@@H](Cc1cnc[nH]1)C(=O)N[C@@H](CO)C(=O)N[C@@H](CCCNC(=N)N)C(=O)N[C@H](C(=O)N1CCC[C@H]1C(=O)N[C@@H](Cc1ccc(C(=O)c2ccccc2)cc1)C(=O)N1CCC[C@H]1C(=O)O)C(C)C (H-[Nle]PLHSRVP[Bpa]P-OH)
 |  | > 10000 nM |  | CCCC[C@H](N)C(=O)N1CCC[C@H]1C(=O)N[C@@H](CC(C)C)C(=O)N[C@@H](Cc1cnc[nH]1)C(=O)N[C@@H](CO)C(=O)N[C@@H](CCCNC(=N)N)C(=O)N[C@H](C(=O)NC1(C(=O)N[C@@H](Cc2ccccc2)C(=O)O)CC1)C(C)C (H-[Nle]PLHSRV[Ac3c]F-OH)
 |  | > 10000 nM |  | CCCC[C@H](N)C(=O)N1CCC[C@H]1C(=O)N[C@@H](CC(C)C)C(=O)N[C@@H](Cc1cnc[nH]1)C(=O)N[C@@H](CO)C(=O)N[C@@H](CCCNC(=N)N)C(=O)N[C@H](C(=O)NC(C)(C)C(=O)N[C@@H](Cc1ccccc1)C(=O)O)C(C)C (H-[Nle]PLHSRV[Aib]F-OH)
 |  | 159 nM |  | CCCC[C@H](N)C(=O)N1CCC[C@H]1C(=O)N[C@@H](CC(C)C)C(=O)N[C@@H](Cc1cnc[nH]1)C(=O)N[C@@H](CO)C(=O)N[C@@H](CCCNC(=N)N)C(=O)N[C@H](C(=O)N1CC[C@H]1C(=O)N[C@@H](Cc1ccccc1)C(=O)O)C(C)C (H-[Nle]PLHSRV[Aze]F-OH)
 |  | 186 nM |  | CCCC[C@H](N)C(=O)N1CCC[C@H]1C(=O)N[C@@H](CC(C)C)C(=O)N[C@@H](Cc1cnc[nH]1)C(=O)N[C@@H](CO)C(=O)N[C@@H](CCCNC(=N)N)C(=O)N[C@H](C(=O)N1CCCC[C@H]1C(=O)N[C@@H](Cc1ccccc1)C(=O)O)C(C)C (H-[Nle]PLHSRV[Pip]F-OH)
 |  | > 10000 nM |  | CCCC[C@H](N)C(=O)N1CCC[C@H]1C(=O)N[C@@H](CC(C)C)C(=O)N[C@@H](Cc1cnc[nH]1)C(=O)N[C@@H](CO)C(=O)N[C@@H](CCCNC(=N)N)C(=O)NC1(C(=O)N2CCC[C@H]2C(=O)N[C@@H](Cc2ccccc2)C(=O)N2CCC[C@H]2C(=O)O)CC1 (H-[Nle]PLHSR[Ac3c]PFP-OH)
 |  | > 10000 nM |  | CCCC[C@H](N)C(=O)N1CCC[C@H]1C(=O)N[C@@H](CC(C)C)C(=O)N[C@@H](Cc1cnc[nH]1)C(=O)N[C@@H](CO)C(=O)N[C@@H](CCCNC(=N)N)C(=O)NC1(C(=O)N2CCC[C@H]2C(=O)N[C@@H](Cc2ccccc2)C(=O)N2CCC[C@H]2C(=O)O)CCCC1 (H-[Nle]PLHSR[Ac5c]PFP-OH)
 |  | 152 nM |  | CCCC[C@H](N)C(=O)N1CCC[C@H]1C(=O)N[C@@H](CC(C)C)C(=O)N[C@@H](Cc1cnc[nH]1)C(=O)N[C@@H](CO)C(=O)N[C@@H](CCCNC(=N)N)C(=O)N[C@@H](CC1CCCCC1)C(=O)N1CCC[C@H]1C(=O)N[C@@H](Cc1ccccc1)C(=O)N1CCC[C@H]1C(=O)O (H-[Nle]PLHSR[Cha]PFP-OH)
 |  | 174 nM |  | CCCC[C@H](N)C(=O)N1CCC[C@H]1C(=O)N[C@@H](CC(C)C)C(=O)N[C@@H](Cc1cnc[nH]1)C(=O)N[C@@H](CO)C(=O)N[C@@H](CCCNC(=N)N)C(=O)N[C@H](C(=O)N1CCC[C@H]1C(=O)N[C@@H](Cc1ccccc1)C(=O)N1CCC[C@H]1C(=O)O)C(C)(C)C (H-[Nle]PLHSR[Tle]PFP-OH)
 |  | 62 nM |  | CCCC[C@H](N)C(=O)N1CCC[C@H]1C(=O)N[C@@H](CC(C)C)C(=O)N[C@@H](Cc1c[nH]c2ccccc12)C(=O)N[C@@H](CO)C(=O)N[C@@H](CCCNC(=N)N)C(=O)N[C@H](C(=O)N1CCC[C@H]1C(=O)N[C@@H](Cc1ccccc1)C(=O)N1CCC[C@H]1C(=O)O)C(C)C (H-[Nle]PLWSRVPFP-OH)
 |  | > 10000 nM |  | CCCC[C@H](N)C(=O)N1CCC[C@H]1C(=O)N[C@@H](CC(C)C)C(=O)N[C@@H](Cc1cccc2ccccc12)C(=O)N[C@@H](CO)C(=O)N[C@@H](CCCNC(=N)N)C(=O)N[C@H](C(=O)N1CCC[C@H]1C(=O)N[C@@H](Cc1ccccc1)C(=O)N1CCC[C@H]1C(=O)O)C(C)C (H-[Nle]PL[1Nal]SRVPFP-OH)
 |  | > 10000 nM |  | CCCC[C@H](N)C(=O)N1CCC[C@H]1C(=O)N[C@@H](CC(C)C)C(=O)N[C@@H](Cc1ccc2ccccc2c1)C(=O)N[C@@H](CO)C(=O)N[C@@H](CCCNC(=N)N)C(=O)N[C@H](C(=O)N1CCC[C@H]1C(=O)N[C@@H](Cc1ccccc1)C(=O)N1CCC[C@H]1C(=O)O)C(C)C (H-[Nle]PL[2Nal]SRVPFP-OH)
 |  | 664 nM |  | CCCC[C@H](N)C(=O)N1CCC[C@H]1C(=O)N[C@@H](CC(C)C)C(=O)N[C@@H](Cc1cccs1)C(=O)N[C@@H](CO)C(=O)N[C@@H](CCCNC(=N)N)C(=O)N[C@H](C(=O)N1CCC[C@H]1C(=O)N[C@@H](Cc1ccccc1)C(=O)N1CCC[C@H]1C(=O)O)C(C)C (H-[Nle]PL[2Thi]SRVPFP-OH)
 |  | 71 nM |  | CCCC[C@H](N)C(=O)N1CCC[C@H]1C(=O)N[C@@H](CC(C)C)C(=O)N[C@@H](Cc1cncs1)C(=O)N[C@@H](CO)C(=O)N[C@@H](CCCNC(=N)N)C(=O)N[C@H](C(=O)N1CCC[C@H]1C(=O)N[C@@H](Cc1ccccc1)C(=O)N1CCC[C@H]1C(=O)O)C(C)C (H-[Nle]PL[Ala(thiazol-5-yl)]SRVPFP-OH)
 |  | 474 nM |  | CCCC[C@H](N)C(=O)N1CCC[C@H]1C(=O)N[C@@H](CC(C)C)C(=O)N[C@@H](CC1CCCCC1)C(=O)N[C@@H](CO)C(=O)N[C@@H](CCCNC(=N)N)C(=O)N[C@H](C(=O)N1CCC[C@H]1C(=O)N[C@@H](Cc1ccccc1)C(=O)N1CCC[C@H]1C(=O)O)C(C)C (H-[Nle]PL[Cha]SRVPFP-OH)
 |  | > 10000 nM |  | CCCC[C@H](N)C(=O)N1CCC[C@H]1C(=O)N[C@@H](CC(C)C)C(=O)N[C@@H](CCN)C(=O)N[C@@H](CO)C(=O)N[C@@H](CCCNC(=N)N)C(=O)N[C@H](C(=O)N1CCC[C@H]1C(=O)N[C@@H](Cc1ccccc1)C(=O)N1CCC[C@H]1C(=O)O)C(C)C (H-[Nle]PL[Dab]SRVPFP-OH)
 |  | > 10000 nM |  | CCCC[C@H](N)C(=O)N1CCC[C@H]1C(=O)N[C@@H](CC(C)C)C(=O)N[C@@H](CCCN)C(=O)N[C@@H](CO)C(=O)N[C@@H](CCCNC(=N)N)C(=O)N[C@H](C(=O)N1CCC[C@H]1C(=O)N[C@@H](Cc1ccccc1)C(=O)N1CCC[C@H]1C(=O)O)C(C)C (H-[Nle]PL[Orn]SRVPFP-OH)
 |  | 54 nM |  | CCCC[C@H](N)C(=O)N1CCC[C@H]1C(=O)N[C@H](C(=O)N[C@@H](Cc1cnc[nH]1)C(=O)N[C@@H](CO)C(=O)N[C@@H](CCCNC(=N)N)C(=O)N[C@H](C(=O)N1CCC[C@H]1C(=O)N[C@@H](Cc1ccccc1)C(=O)N1CCC[C@H]1C(=O)O)C(C)C)C(C)C (H-[Nle]PVHSRVPFP-OH)
 |  | 278 nM |  | CCCC[C@H](N)C(=O)N1CCC[C@H]1C(=O)NC1(C(=O)N[C@@H](Cc2cnc[nH]2)C(=O)N[C@@H](CO)C(=O)N[C@@H](CCCNC(=N)N)C(=O)N[C@H](C(=O)N2CCC[C@H]2C(=O)N[C@@H](Cc2ccccc2)C(=O)N2CCC[C@H]2C(=O)O)C(C)C)CC1 (H-[Nle]P[Ac3c]HSRVPFP-OH)
 |  | > 10000 nM |  | H-HSRVPFP-OH
